Values after ≈ are worked out from the molar mass of the structure shown. Read-outs that look alike come from different tables or passages of the source. *1 amine or outer side, *2 acyl side, *3 side chain or, on linkers, in order; H or OH if unused. Where a SMILES comes first, the peptide text is derived from it. Bridges are numbered along the chain shown (N, C = ends). [ ]: non-standard residue; d: D form. The star is where a group is joined. ξ: configuration not given here. Phe(3,5-F2) = N[CH](Cc1cc(F)cc(F)c1)C(=O)O; X14 = O=C(C1CC(OP(=O)(O)O)CN1[*:1])[*:2]; Pro(4S-Me) = C[C@@H]1CN[C@H](C(=O)O)C1; Pro(4R-Me) = C[C@H]1CN[C@H](C(=O)O)C1; NH(3,4-Me2-phenyl) = Cc1ccc(N*)cc1C; NH(4-Me-phenyl) = Cc1ccc(N*)cc1; aThr = C[C@H](O)[C@H](N)C(=O)O; ξPro(4ξ-Me) = CC1CNC(C(=O)O)C1; Pip = O=C(O)[CH]1CCCCN1; X3 = Cn1ccc2ccc(N*)cc21; CO = O=C([*:1])[*:2]
Tests used:
[1] = tested on: Staphylococcus aureus, USA 300 wherein ClpP is inactivated; experiment: Minimal inhibitory concentration assay; format: cell-based
How it was run: (§1)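 Compound is serially diluted two-fold in the appropriate broth, and bacterial inoculum at about 10^5 cfu/mL is added so the highest final concentration is 200 μM. Plates stay overnight at 37 °C under aerobic conditions before growth is scored by eye.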

[2] = Cytotoxicity assay (CellTiter-Glo cell viability, 72 hours); format: cell-based; settings: African green monkey; Vero cells, 72 hours, growth inhibition; read-out: Cytotoxicity IC50
Description: Cytotoxicity was determined by determining the effect of compounds on cell viability. Vero (kidney epithelial cells; ATCC CCL-81) monolayers were trypsinized and 5000 cells/well were seeded (10-15% confluency) into white-wall, flat bottom 96 well microwell plates (Corning) using enriched Dulbecco's Modified Eagle's Medium (Hyclone:DMEM/High Glucose) containing 10% Fetal Bovine Serum (ATCC-30-2020). Plates were incubated overnight at 37° C. in the presence of 5% CO2. Drug-free media was then replaced with media containing serial dilutions of test compound or DMSO carrier. After an additional 72 hours of incubation, viability was indirectly measured using the CellTiter-Glo® Luminescent Cell Viability (Promega) assay. Assay plates were read at peak emission wavelength of 560 nm using a EnVision® Multilabel Plate Reader (Perkin Elmer) or PHERAstar FS Multilabel reader (BMG, Cary, N.C.). […] USA, www.graphpad.com]. For each experiment, compounds were tested in duplicate. IC50 values presented are the range of two biologically independent experiments.

[3] = tested on: Streptococcus pyogenes, ATCC 700294; experiment: Minimal inhibitory concentration assay (microbroth dilution); format: cell-based; settings: Streptococcus pyogenes, ATCC700294, read-out: Minimal Inhibitory Concentrations S. pyogenes ATCC 700294
How it was run: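 Plates with two-fold compound dilution series in broth were incubated overnight, aerobically, at 37° C, following CLSI microdilution guidance.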

[4] = tested on: Staphylococcus aureus, USA 300; experiment: Minimal inhibitory concentration assay; format: cell-based; settings: USA300, read-out: Minimal Inhibitory Concentrations S. aureus USA 300
How it was run: as §1

[5] = tested on: Staphylococcus aureus, ATCC 29213; experiment: Minimal inhibitory concentration assay (microbroth dilution); format: cell-based; settings: ATCC29213, read-out: Minimal Inhibitory Concentrations S. aureus ATCC 29213
How it was run: as §1

[6] = tested on: Enterococcus faecalis, ATCC 33186; experiment: as above; format: cell-based; settings: Enterococcus faecalis, ATCC33186, read-out: Minimal Inhibitory Concentrations E. faecalis ATCC 33186
How it was run: as §1

[7] = tested on: Bacillus subtilis, ATCC 23857; experiment: as above; format: cell-based; settings: Bacillus subtilis, ATCC23857, read-out: Minimal Inhibitory Concentrations B. subtilis ATCC 23857
How it was run: as §1

[8] = tested on: Staphylococcus aureus, NRS70; experiment: as above; format: cell-based; settings: Staphylococcus aureus, NRS70, read-out: Minimal Inhibitory Concentrations S. aureus NRS70
How it was run: as §1

[9] = molecular target: T1, Sa-ClpP (Staphylococcus aureus, UniProt Q2G036); experiment: Sa-ClpP casein-BODIPY ClpP activation assay, method variant not marked in Table 5; format: biochemical, S. aureus
T1 construct: made in house; host or cells: E. coli BL21(DE3)
T1 sequence (Q2G036 1-195): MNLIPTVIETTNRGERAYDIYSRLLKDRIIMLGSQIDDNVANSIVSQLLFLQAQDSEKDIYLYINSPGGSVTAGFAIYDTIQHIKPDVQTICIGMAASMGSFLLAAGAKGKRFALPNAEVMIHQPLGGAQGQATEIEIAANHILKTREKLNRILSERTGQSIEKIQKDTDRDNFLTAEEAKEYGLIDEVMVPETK
Description: The compounds were assayed in a casein digestion assay in order to determine their effect on ClpP activation. Briefly, the assay was carried out using S. aureus ClpP (“Sa-ClpP”) overexpressed in E. coli BL21(DE3) and purified in a two-step process. Purity of the protein was assessed through SDS PAGE analysis. EC50 evaluations were conducted in triplicate in a 20 μl assay format using a method adapted from Maurizi et al. (Methods Enzymol. (1994) 244:314-331). Each well contained 10 μM saClpP, 25 μg/ml BODIPY FL casein (Invitrogen Corporation, San Diego, Calif.), and test compound in concentrations ranging between 0-1000 μM in assay buffer (50 mM Tris pH 8, 200 mM KCl, and 1 mM TCEP). The reaction took place at 37° C. Fluorescence (excitation 485 nm; emission 528 nm) was measured in five minute intervals over a 45 min period using a BioTek HT fluorescence microplate reader (BioTek Instruments, Inc., Winooski, Vt.). Velocity of each reaction was calculated and data was fit to a dose response curve using GraphPad Prism® software (GraphPad Software, Inc., La Jolla, Calif.). EC50 is the effective concentration of compound which causes 50% activation of S. aureus ClpP in the foregoing BODIPY FL casein assay.
Alternatively, the assay was carried out using EnzCheck Protease Assay (Molecular Probes, Catalog # E6638). The assay was performed in black 384 well, flat bottom, low volume plates (Greiner Bio-One, Monroe, N.C., catalog #784076). 10 μL of Tris*HCl buffer, pH 8.0 with 0.01% Triton X-100 was pipetted into each well using a Well-Mate (Thermo Scientific, Waltham, Mass.). 0.4 μL test compounds or controls (2% DMSO v/v) were added to each well using a Biomek FX liquid handling robot (Beckman Coulter, Indianapolis Ind.). After addition of test compounds and controls, 10 μL of master mix containing 2 μM Sa-ClpP and 2 μM substrate (Bodipy-FL labeled casein) in Tris*HCl buffer, pH 8.0 with 0.01% (v/v) Triton X-100, was pipetted into each well. All assays were performed in triplicate, under linear velocity conditions. Increase in fluorescent signal following activation of Sa-ClpP by test compounds and controls was measured over time period of 30 mins using filters with excitation at 485±15 nm and emission at 520±25 nm on a PHERAstar FS Multilabel reader (BMG, Cary, N.C.). […] Data analysis was done by measuring rate of casein degradation over time (slopes). Computed degradation rates (slopes) were normalized to positive (ADEP4) or negative (DMSO) controls. Using nonlinear regression curve fitting EC50 values and % activation were determined using the equation “log [agonist] vs. Response-variable slope (four parameters)-symmetrical” in the program Prism 6 (GraphPad Software, La Jolla, Calif. USA, www.graphpad.com).
Substituted urea depsipetide analogs were synthesized as described above. The EC50 for ClpP activation was determined in the Sa-ClpP in casein-BODIPY assay as described above. The IC50 for ADEP displacement was determined in the ADEP displacement fluorescent polarization assay as described above; and the IC50 for growth inhibition was determined in the Vero cell cytotoxicity assay as described above. The compound number corresponds to the compound numbers used in Tables 1-4 and the experimental examples described above.

[10] = molecular target: T1, Sa-ClpP; experiment: ADEP displacement fluorescence polarization assay (FP probe ADEP 2591); format: binding
Description: A fluorescence polarization (FP) assay was used to determine the activity of the disclosed compounds in displacing an ADEP analogue from ClpP. Briefly, the assay was performed in black 384 well, flat bottom, low volume plates (Greiner Bio-One, Monroe, N.C., catalog #784076). 20 μL of a pre-equilibrated (1 hr, room temperature) master mix (15 μM Sa-ClpP, 2% DMSO (v/v) and 50 nM FP probe in Tris*HCl, pH 8.0)) was pipetted into each well using a Well-Mate (Thermo Scientific, Waltham, Mass.). Sa-ClpP was prepared as described above for the ClpP activation assay. The FP probe was ADEP 2591 (structure shown above). The ADEP 2591 comprises a TAMRA fluorophore linked to a core based on modified ADEP 2378 via a short alkyl linker. Using pin transfer, approximately 0.4 μL (2% v/v DMSO) of each compound or control was added per well. After addition of compounds and controls, plates were allowed to incubate for an additional 120 minutes at room temperature. All assays were performed in triplicate. Polarization was monitored using an EnVision Multilabel reader (Perkin-Elmer, Waltham, Mass.) by exciting the FP probe at 530±25 nm, and monitoring fluorescence intensity of both parallel and perpendicular polarized light at 579±25 nm. Readout was in millipolarization units (mP).
Data collected was normalized to values obtained from positive (200 μM ADEP 2378) or negative (DMSO) controls. Curves were fit with non-linear regression using the equation “log [inhibitor] vs. Response-variable slope (four parameters)-symmetrical” in the program Prism 6 (GraphPad Software, La Jolla, Calif. USA, www.graphpad.com). The structures for ADEP 2378 and ADEP 2591 are shown above. ADEP 2378 is (E)-N—((S)-1-(((2R,6S,8aS,14aS,20S,23aS)-2,6-dimethyl-5,8,14,19,23-pentaoxooctadecahydro-1H,5H,14H,19H-pyrido[2,1-i]dipyrrolo[2,1-c:2′,1′-1][1]oxa[4,7,10,13]tetraazacyclohexadecin-20-yl)amino)-1-oxo-3-phenylpropan-2-yl)pent-2-enamide. ADEP 2591 is 5-(3-(3-((6S,9S,11aS,17S,20aS)-6,10-dimethyl-5,8,11,16,20-pentaoxo-17-((S)-2-((E)-pent-2-enamido)-3-phenylpropanamido)hexadecahydro-1H,5H,16H-dipyrrolo[2,1-c:2′,1′-1][1]oxa[4,7,10,13]tetraazacyclohexadecin-9-yl)propyl)thioureido)-2-(6-(dimethylamino)-3-(dimethyliminio)-3H-xanthen-9-yl)benzoate.

[11] = values without ** or † mark, assay variant not stated, read-out: ClpP Activation EC50
[12] = displacement of FP probe ADEP 2591 from Sa-ClpP, read-out: ADEP Displacement IC50

Compound	Minimal Inhibitory Concentrations S. aureus USA 300 ΔClpP [1]	IC50 at 72 h [2]	EC50 [9, 11]	IC50 [10, 12]	further results
Cc1ccc(NC(=O)N[C@@H](Cc2cc(F)cc(F)c2)C(=O)N[C@@H]2C(=O)N3CCC[C@H]3C(=O)N3CCCC[C@H]3C(=O)N[C@@H](C)C(=O)N3C[C@@H](C)C[C@H]3C(=O)O[C@H]2C)cc1 [Compound 200, (S)-3-(3,5-difluorophenyl)-2-(3-(p-tolyl)ureido)-N-((2R,6S,8aS,14aS,20S,21S,23aS)-2,6,21-trimethyl-5,8,14,19,23-pentaoxooctadecahydro-1H,5H,14H,19H-pyrido[2,1-i]dipyrrolo[2,1-c:2′,1′-l][1]oxa[4,7,10,13]tetraazacyclohexadecin-20-yl)propanamide] ({NH(4-Me-phenyl)-CO}-[Phe(3,5-F2)][aThr]P[Pip]A[Pro(4S-Me)]; ester 2-C)	100 µM	26.7 ± 3.6 µM			
C[C@@H]1C[C@H]2C(=O)O[C@@H](C)[C@H](NC(=O)[C@H](Cc3cc(F)cc(F)c3)NC(=O)Nc3ccc4ccn(C)c4c3)C(=O)N3CCC[C@H]3C(=O)N3CCCC[C@H]3C(=O)N[C@@H](C)C(=O)N2C1 [Compound 306, (S)-3-(3,5-difluorophenyl)-2-(3-(1-methyl-1H-indol-6-yl)ureido)-N-((2R,6S,8aS,14aS,20S,21S,23aS)-2,6,21-trimethyl-5,8,14,19,23-pentaoxooctadecahydro-1H,5H,14H,19H-pyrido[2,1-i]dipyrrolo[2,1-c:2′,1′-l][1]oxa[4,7,10,13]tetraazacyclohexadecin-20-yl)propanamide] ({X3-CO}-[Phe(3,5-F2)][aThr]P[Pip]A[Pro(4R-Me)]; ester 2-C)	>20 µM	11.8 ± 0.8 µM			MIC [3]: 0.313 µM (≈ 0.265 µg/mL); MIC [4]: 0.156 µM (≈ 0.132 µg/mL); MIC [5]: 0.156 µM (≈ 0.132 µg/mL); MIC [6]: 0.039 µM (≈ 0.033 µg/mL); MIC [7]: 0.078 µM (≈ 0.0661 µg/mL); MIC [8]: 0.078 µM (≈ 0.0661 µg/mL)
sodium (R)-1-((2R,6S,9S,11aS,17S,18S,20aS)-17-((S)-3-(3,5-difluorophenyl)-2-(3-(p-tolyl)ureido)propanamido)-2,6,10,18-tetramethyl-5,8,11,16,20-pentaoxohexadecahydro-1H,5H,16H-dipyrrolo[2,1-c:2′,1′-l][1]oxa[4,7,10,13]tetraazacyclohexadecin-9-yl)ethyl phosphate [Compound 193]			0.77 ± 0.05 µM	7.15 ± 0.33 µM	
Cc1ccc(NC(=O)NC(Cc2cc(F)cc(F)c2)C(=O)NC2C(=O)N3CC(OP(=O)(O)O)CC3C(=O)N3CCCCC3C(=O)NC(C)C(=O)N3CC(C)CC3C(=O)OC2C)cc1C [Compound 192, sodium (2R,6S,8aS,14aS,16R,20S,21S,23aS)-20-((S)-3-(3,5-difluorophenyl)-2-(3-(3,4-dimethylphenyl)ureido)propanamido)-2,6,21-trimethyl-5,8,14,19,23-pentaoxooctadecahydro-1H,5H,14H,19H-pyrido[2,1-i]dipyrrolo[2,1-c:2′,1′-l][1]oxa[4,7,10,13]tetraazacyclohexadecin-16-yl phosphate] ({NH(3,4-Me2-phenyl)-CO}-[Phe(3,5-F2)]T[X14][Pip]A[ξPro(4ξ-Me)]; ester 2-C; configuration not given here)					EC50 [9]: 0.6 ± 0.02 µM; IC50 [10]: 7.37 ± 0.28 µM
sodium (2R,6S,8aS,14aS,16R,20S,21S,23aS)-20-((S)-3-(3,5-difluorophenyl)-2-(3-(p-tolyl)ureido)propanamido)-2,6,21-trimethyl-5,8,14,19,23-pentaoxooctadecahydro-1H,5H,14H,19H-pyrido[2,1-i]dipyrrolo[2,1-c:2′,1′-l][1]oxa[4,7,10,13]tetraazacyclohexadecin-16-yl phosphate [Compound 191]			0.7 ± 0.03 µM	8.56 ± 0.38 µM	

— patent publication US10457707B2, “Substituted urea depsipeptide analogs as activators of the CLPP endopeptidase” (priority 2015, dated 2019)
